In patent US10889560B2, “4-amino-2-pyrido-bicyclic pyrimidines and use thereof as topoisomerase II inhibitors” (FONDAZIONE ISTITUTO ITALIANO DI TECNOLOGIA, priority 2016, dated 2021):
In brackets after ≈: the same amount, converted by molar mass.

Tests used:
Kinetic solubility = assay type: physicochemical; conditions: kinetic from dmso stock
[1] = Stability in mouse plasma; assay type: in vitro ADME; conditions: read-out: Stability (t 1/2) Mouse plasma
[2] = Stability in mouse liver microsomes; assay type: in vitro ADME; conditions: read-out: Stability (t 1/2) Mouse liver microsomes
A549 = assay: Cell activity (cancer cell proliferation), A549; assay type: cell-based; conditions: Homo sapiens
DU145 = assay: Cell activity (cancer cell proliferation), DU145; assay type: cell-based; conditions: Homo sapiens, DU-145
[3] = molecular target: human type II topoisomerase (topo II); assay: Topo II inhibitory activity; assay type: biochemical
Thermodynamic solubility = assay type: physicochemical; conditions: thermodynamic from solid; Termodinamic
G361 = assay: Cell activity (cancer cell proliferation), G361; assay type: cell-based; conditions: Homo sapiens, G-361
A375 = assay: Cell activity (cancer cell proliferation), A375; assay type: cell-based; conditions: Homo sapiens, A-375
MCF7 = assay: Cell activity (cancer cell proliferation), MCF7; assay type: cell-based; conditions: Homo sapiens
HeLa = assay: Cell activity (cancer cell proliferation), HeLa; assay type: cell-based; conditions: Homo sapiens

solubility kinetic (Kinetic solubility) | half-life [1] | IC50 (A549) | IC50 (DU145) | IC50 [3] | SMILES | other results
> 250 µM | > 2 h |  |  |  | N[C@@H]1CCc2nc(-c3ccncc3)nc(Nc3cccc(F)c3)c2C1 (single isomer, unassigned) [Example E1.2] | 
> 250 µM | > 2 h |  |  |  | N[C@H]1CCc2nc(-c3ccncc3)nc(Nc3cccc(F)c3)c2C1 (single isomer, unassigned) [Example E1.3] | 
> 250 µM | > 2 h |  |  |  | NC1CCc2nc(-c3ccncc3)nc(Nc3cccc(F)c3)c2C1 (stereo not drawn) [Example E1.1, N4-(3-fluorophenyl)-2-(4-pyridyl)-5,6,7,8-tetrahydroquinazoline-4,6-diamine] | half-life [2]: > 1 h
249 µM (≈ 82.5 µg/mL) | > 2 h | 14.4 µM | 12.3 µM | 200 ± 20 µM | Cc1cccc(Nc2nc(-c3ccncc3)nc3c2CC(N)CC3)c1 (stereo not drawn) [Example E1.4, N4-(m-tolyl)-2-(4-pyridyl)-5,6,7,8-tetrahydroquinazoline-4,6-diamine] | 
> 250 µM | > 2 h | 26.2 µM |  |  | COc1cccc(Nc2nc(-c3ccncc3)nc3c2CC(N)CC3)c1 (stereo not drawn) [Example E1.5, N4-(3-methoxyphenyl)-2-(4-pyridyl)-5,6,7,8-tetrahydroquinazoline-4,6-diamine] | 
 |  | 75.9 µM | 37.4 µM | > 500 µM | Nc1cccc(Nc2nc(-c3ccncc3)nc3c2CC(N)CC3)c1 (stereo not drawn) [Example E1.6, N4-(3-aminophenyl)-2-(4-pyridyl)-5,6,7,8-tetrahydroquinazoline-4,6-diamine] | 
 |  | 33.4 µM | 24.5 µM | > 200 µM | CNc1cccc(Nc2nc(-c3ccncc3)nc3c2CC(N)CC3)c1 (stereo not drawn) [Example E1.7, N4-[3-(methylamino)phenyl]-2-(4-pyridyl)-5,6,7,8-tetrahydroquinazoline-4,6-diamine] | 
> 250 µM | > 2 h |  |  |  | NC1CCc2nc(-c3ccncc3)nc(Nc3ccc(F)cc3)c2C1 (stereo not drawn) [Example E1.8, N4-(4-fluorophenyl)-2-(4-pyridyl)-5,6,7,8-tetrahydroquinazoline-4,6-diamine] | 
 |  | 74.5 µM | 20.8 µM | > 500 µM | NC1CCc2nc(-c3ccncc3)nc(Nc3ccc(O)cc3)c2C1 (stereo not drawn) [Example E1.9, 4-[[6-amino-2-(4-pyridyl)-5,6,7,8-tetrahydroquinazolin-4-yl]amino]phenol] | 
 | > 2 h | 21.3 µM | 25.4 µM |  | NC1CCc2nc(-c3cccnc3)nc(Nc3cccc(F)c3)c2C1 (stereo not drawn) [Example E1.10, N4-(3-fluorophenyl)-2-(3-pyridyl)-5,6,7,8-tetrahydroquinazoline-4,6-diamine] | 
> 250 µM | > 2 h |  |  | 3.5 ± 0.5 µM | CN(C)c1ccc(Nc2nc(-c3ccncc3)nc3c2CC(N)CC3)cc1 (stereo not drawn) [Example E1.11, N4-[4-(dimethylamino)phenyl]-2-(4-pyridyl)-5,6,7,8-tetrahydroquinazoline-4,6-diamine] | half-life [2]: > 1 h; solubility (Thermodynamic solubility): 452 µM (≈ 163 µg/mL)
> 250 µM | > 2 h | 23.7 µM | 32.9 µM | 25 ± 5 µM | Fc1cccc(Nc2nc(-c3ccncc3)nc3c2CNCC3)c1 [Example E2.1, N-(3-fluorophenyl)-2-(4-pyridyl)-5,6,7,8-tetrahydropyrido[4,3-d]pyrimidin-4-amine] | IC50 (G361): 6.1 µM; IC50 (A375): 29.6 µM; half-life [2]: 0.65 h; IC50 (MCF7): 33.4 µM; IC50 (HeLa): 32.3 µM; solubility (Thermodynamic solubility): 96 µM (≈ 30.9 µg/mL)
> 250 µM | > 2 h | 35.3 µM | 25 µM | 120 ± 13 µM | COc1cccc(Nc2nc(-c3ccncc3)nc3c2CNCC3)c1 [Example E2.2, N-(3-methoxyphenyl)-2-(4-pyridyl)-5,6,7,8-tetrahydropyrido[4,3-d]pyrimidin-4-amine] | 
> 250 µM | > 2 h | 513 µM | 85.2 µM | 150 ± 18 µM | Nc1cccc(Nc2nc(-c3ccncc3)nc3c2CNCC3)c1 [Example E2.3, N1-[2-(4-pyridyl)-5,6,7,8-tetrahydropyrido[4,3-d]pyrimidin-4-yl]benzene-1,3-diamine] | 
> 250 µM | > 2 h | 61.9 µM | 45 µM | 160 ± 20 µM | CNc1cccc(Nc2nc(-c3ccncc3)nc3c2CNCC3)c1 [Example E2.4, N3-methyl-N1-[2-(4-pyridyl)-5,6,7,8-tetrahydropyrido[4,3-d]pyrimidin-4-yl]benzene-1,3-diamine] | 
> 250 µM | > 2 h | 40.8 µM | 42.5 µM | 140 ± 20 µM | CN(C)c1cccc(Nc2nc(-c3ccncc3)nc3c2CNCC3)c1 [Example E2.5, N3,N3-dimethyl-N1-[2-(4-pyridyl)-5,6,7,8-tetrahydropyrido[4,3-d]pyrimidin-4-yl]benzene-1,3-diamine] | 
 |  |  |  | 200 ± 15 µM | Oc1ccc(Nc2nc(-c3ccncc3)nc3c2CNCC3)cc1 [Example E2.6, 4-[[2-(4-pyridyl)-5,6,7,8-tetrahydropyrido[4,3-d]pyrimidin-4-yl]amino]phenol] | 
> 250 µM | > 2 h |  |  | 4.5 ± 1 µM | Fc1ccccc1Nc1nc(-c2ccncc2)nc2c1CNCC2 [Example E2.7, N-(2-fluorophenyl)-2-(4-pyridyl)-5,6,7,8-tetrahydropyrido[4,3-d]pyrimidin-4-amine] | half-life [2]: 0.5 h; solubility (Thermodynamic solubility): 596 µM (≈ 192 µg/mL)
17 µM (≈ 5.63 µg/mL) | 1.48 h | 9.2 µM | 7.7 µM | 80 ± 15 µM | Nc1ccc2nc(-c3ccncc3)nc(Nc3cccc(F)c3)c2c1 [Example E3, N4-(3-fluorophenyl)-2-(4-pyridyl)quinazoline-4,6-diamine] | IC50 (G361): 10.4 µM; IC50 (A375): 8.3 µM; half-life [2]: 0.367 h; IC50 (MCF7): 8.6 µM; IC50 (HeLa): 4.7 µM; solubility (Thermodynamic solubility): 0.2 µM (≈ 0.0663 µg/mL)
 |  |  |  | > 200 µM | Fc1cccc(Nc2nc(-c3ccncc3)nc3ccncc23)c1 [Example E4, N-(3-fluorophenyl)-2-(4-pyridyl)pyrido[4,3-d]pyrimidin-4-amine] | 
 |  |  |  |  | Fc1cccc(Nc2nc(-c3ccncc3)nc3ccccc23)c1 [Example E6, N-(3-fluorophenyl)-2-(4-pyridyl)quinazolin-4-amine] | Activity Topo II IC50 (μM) [3]: inactive
